Each molecule was assayed against T1, human RXFP1 (Homo sapiens, UniProt Q9HBX9) (assay: RXFP1 cAMP assay (hRXFP1 HEK293 cAMP assay, HTRF)). Conditions: HEK293 cells stably expressing human RXFP1, 30 min at room temperature, read-out: cAMP hRXFP1 HEK293 Assay EC50.
T1 construct: expressed in transfected cells
T1 sequence (Q9HBX9 1-757): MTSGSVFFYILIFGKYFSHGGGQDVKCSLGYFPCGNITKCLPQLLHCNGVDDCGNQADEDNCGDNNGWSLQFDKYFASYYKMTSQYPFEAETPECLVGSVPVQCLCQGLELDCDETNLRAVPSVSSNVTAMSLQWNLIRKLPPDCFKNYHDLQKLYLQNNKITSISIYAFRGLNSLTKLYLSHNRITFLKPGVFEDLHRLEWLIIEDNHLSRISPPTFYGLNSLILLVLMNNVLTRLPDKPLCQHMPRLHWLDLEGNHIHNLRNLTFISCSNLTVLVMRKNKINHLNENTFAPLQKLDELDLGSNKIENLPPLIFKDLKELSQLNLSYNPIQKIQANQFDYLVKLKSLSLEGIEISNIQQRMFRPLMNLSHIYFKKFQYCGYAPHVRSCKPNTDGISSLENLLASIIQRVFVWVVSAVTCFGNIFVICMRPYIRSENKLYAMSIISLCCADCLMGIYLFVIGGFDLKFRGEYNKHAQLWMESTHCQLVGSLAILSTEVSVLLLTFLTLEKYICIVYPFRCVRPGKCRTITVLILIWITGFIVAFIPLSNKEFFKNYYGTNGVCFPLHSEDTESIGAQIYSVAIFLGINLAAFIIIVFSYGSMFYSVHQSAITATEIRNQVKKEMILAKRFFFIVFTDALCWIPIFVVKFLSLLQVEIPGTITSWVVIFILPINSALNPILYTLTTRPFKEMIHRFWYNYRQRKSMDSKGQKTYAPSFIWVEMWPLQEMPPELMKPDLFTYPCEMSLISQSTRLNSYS
Type: cell-based
Outline: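 hRXFP1-HEK293 stable line; HBSS + Ca/Mg, 20 mM HEPES, 0.05% BSA, 0.5 mM IBMX; cpd 0.010 nM–50 μM, 2% DMSO; 30 min RT; lysis, HTRF cAMP detection; 4-PL fit.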
`COc1ccc(-c2cccc3c2CN(C(=O)C(C)(C)O)C3)cc1C(=O)N[C@@H]1C2CCC(/C2=C/C2CC2)[C@@H]1C(=O)Nc1ccc(F)c(C(F)(F)F)c1` (stereo partly drawn) [compound 889] was tested, and the EC50 was 0.0085 µM. With `COc1ccc(C2=NOC(C(N)=O)C2)cc1C(=O)N[C@@H]1C2CCC(/C2=C/C2CC2)[C@@H]1C(=O)Nc1ccc(F)c(C(F)(F)F)c1` (stereo partly drawn) [compound 404] the EC50 was 0.045 µM. Work on `COCCOc1ccc(C2=NOC3COCC23)cc1C(=O)N[C@H]1[C@@H](C(=O)Nc2ccc(F)c(C(F)(F)F)c2)[C@H]2CC[C@@H]1/C2=C\C1CC1` (single isomer, unassigned) [Example 452] yielded an EC50 of 0.0018 µM. Work on `COc1ccc(Br)cc1C(=O)N[C@@H]1C2CCC(/C2=C/c2ccccc2)[C@@H]1C(=O)Nc1ccc(F)c(C(F)(F)F)c1` (stereo partly drawn) [Example 77] yielded an EC50 of 0.33 µM. Molecule `COc1ccc(C2=NOC3COCC23)cc1C(=O)N[C@H]1[C@@H](C(=O)NCCC2CCC2)[C@H]2CC[C@@H]1/C2=C\C1CC1` (stereo partly drawn) [compound 648] has an EC50 of 0.242 µM. Work on `COc1ccc(C2CCCN2C(=O)OC(C)(C)C)cc1C(=O)N[C@@H]1C2CCC(/C2=C/C2CC2)[C@@H]1C(=O)Nc1ccc(F)c(C(F)(F)F)c1` (single isomer, unassigned) [compound 694] yielded an EC50 of 0.796 µM. With `CN(C)c1ccc(C2=NOC3COCC23)cc1C(=O)N[C@H]1[C@@H](C(=O)Nc2ccc(F)c(C(F)(F)F)c2)[C@H]2CC[C@@H]1/C2=C\C1CC1` (stereo partly drawn) [compound 460] the EC50 was 0.0025 µM. With `COc1ccc(-c2cc(C(=O)NS(=O)(=O)c3ccccc3)ccc2F)cc1C(=O)N[C@@H]1C2CCC(C2=C(C)C)[C@@H]1C(=O)Nc1ccc(F)c(C(F)(F)F)c1` (stereo partly drawn) [Example 150] the EC50 was 0.19 µM. Molecule `COc1c(F)cc(-c2cnc3n2CC(O)CC3)cc1C(=O)N[C@H]1[C@@H](C(=O)Nc2ccc(F)c(C(F)(F)F)c2)[C@H]2CC[C@@H]1/C2=C\C1CC1` (stereo partly drawn) [compound 751] has an EC50 of 0.0022 µM. `COc1ccc(-c2cc(C(NC(=O)C3CCOCC3)C(=O)O)ccc2F)cc1C(=O)N[C@H]1[C@@H](C(=O)Nc2ccc(F)c(C(F)(F)F)c2)[C@H]2CC[C@@H]1/C2=C\C1CC1` (stereo partly drawn) [Example 238, 2-(3′-(((1R,2R,3S,4R,Z)-7-(cyclopropylmethylene)-3-((4-fluoro-3-(trifluoromethyl)phenyl)carbamoyl)bicyclo[2.2.1]heptan-2-yl)carbamoyl)-6-fluoro-4′-methoxy-[1,1′-biphenyl]-3-yl)-2-(tetrahydro-2H-pyran-4-carboxamido)acetic acid] was tested, and the EC50 was 0.001 µM. `COc1ccc(C2=NO[C@H]3C[C@H](CO)C[C@@H]23)cc1C(=O)N[C@H]1[C@@H](C(=O)N[C@H](C)C2(C)CC2)[C@H]2CC[C@@H]1/C2=C\C1CCCC1` [compound 817] was tested, and the EC50 was 0.0019 µM. `COc1ccc(-c2cc(C(=O)O)ccc2F)cc1C(=O)N[C@@H]1C2CCC(/C2=C/C2CC2)[C@@H]1C(=O)NC1Cc2ccccc2C1` (stereo partly drawn) [compound 308] showed an EC50 of 2.39 µM. With `COc1ccc(-c2cc(C(=O)O)ccc2F)cc1C(=O)N[C@H]1[C@@H](CNc2ccc(F)c(C(F)(F)F)c2)[C@H]2CC[C@@H]1/C2=C\C1CC1` [Example 258, 3′-(((1R,2R,3R,4R,Z)-7-(cyclopropylmethylene)-3-(((4-fluoro-3-(trifluoromethyl)phenyl)amino)methyl)bicyclo[2.2.1]heptan-2-yl)carbamoyl)-6-fluoro-4′-methoxy-[1,1′-biphenyl]-3-carboxylic acid] the EC50 was 0.283 µM. With `COc1ccc(-c2ccc(N3CCOCC3)nc2)cc1C(=O)N[C@@H]1C2CCC(/C2=C/C2CC2)[C@@H]1C(=O)Nc1ccc(F)c(C(F)(F)F)c1` (stereo partly drawn) [compound 250] the EC50 was 0.012 µM. In the case of `COc1ccc(-c2cc(C(COC(=O)Nc3ccccc3)C(F)(F)F)ccc2F)cc1C(=O)N[C@H]1[C@@H](C(=O)Nc2ccc(F)c(C(F)(F)F)c2)[C@H]2CC[C@@H]1/C2=C\C1CC1` (stereo partly drawn) [compound 876], the EC50 is reported as 0.0009 µM. With `COc1ccc(C2=CCNCC2)cc1C(=O)N[C@@H]1C2CCC(C2=C(C)C)[C@@H]1C(=O)Nc1ccc(F)c(C(F)(F)F)c1` (stereo partly drawn) [compound 148] the EC50 was 0.91 µM. `COC(=O)N1CCN(c2ccc(OC)c(C(=O)NC3C4CCC(C4=Cc4ccccc4)C3C(=O)Nc3ccc(F)c(C(F)(F)F)c3)c2)CC1` (stereo not drawn) [Example 125] gave an EC50 of 0.24 µM. With `COc1ncc(-c2ccc(OC)c(C(=O)N[C@H]3[C@@H](C(=O)Nc4ccc(F)c(C(F)(F)F)c4)[C@H]4CC[C@@H]3C4=C(C)C)c2)cn1` [compound 88] the EC50 was 0.19 µM. With `COc1ccc(C2=NOC3CC(CO)CC23)cc1C(=O)N[C@@H]1C2CCC(/C2=C/C2CC2)[C@@H]1C(=O)Nc1ccc(F)c(C(F)(F)F)c1` (single isomer, unassigned) [compound 432] the EC50 was 0.002 µM. Work on `COc1ccc(-c2cc(C(OC(=O)NC3CCCC3)C(F)(F)F)ccc2F)cc1C(=O)N[C@@H]1C2CCC(/C2=C/C2CC2)[C@@H]1C(=O)Nc1ccc(F)c(C(F)(F)F)c1` (stereo partly drawn) [compound 219] yielded an EC50 of 0.003 µM. Molecule `COc1c(Cl)cc(C2=NOC3CC(CO)CC23)cc1C(=O)N[C@H]1[C@@H](C(=O)Nc2ccc(F)c(C(F)(F)F)c2)[C@H]2CC[C@@H]1/C2=C\C1CC1` (stereo partly drawn) [compound 798] has an EC50 of 0.0047 µM. In the case of `C=C/C=C1\C2CCC1[C@H](C(=O)Nc1ccc(F)c(C(F)(F)F)c1)[C@@H]2NC(=O)c1cc(F)c(F)cc1OC` (stereo partly drawn) [compound 44], the EC50 is reported as 0.026 µM. In the case of `COc1cc(F)c(F)cc1C(=O)N[C@@H]1[C@@H]2CCC(/C2=C/c2ccoc2)[C@@H]1C(=O)Nc1ccc(F)c(C(F)(F)F)c1` [Example 12], the EC50 is reported as 0.41 µM. `COCCOCCOc1ccc(-c2cc(C(=O)O)ccc2F)cc1C(=O)N[C@@H]1C2CCC(/C2=C/c2ccccc2)[C@@H]1C(=O)Nc1ccc(F)c(C(F)(F)F)c1` (stereo partly drawn) [Example 199] showed an EC50 of 0.128 µM. In the case of `COc1c(F)cc(C2=NO[C@@H]3C[C@H](CO)CN23)cc1C(=O)N[C@H]1[C@@H](C(=O)Nc2ccc(F)c(C(F)(F)F)c2)[C@H]2CC[C@@H]1/C2=C\C1CC1` [compound 852], the EC50 is reported as 0.0031 µM. With `COC(=O)N1CC2ON=C(c3ccc(OC)c(C(=O)N[C@H]4[C@@H](C(=O)Nc5ccc(F)c(C(F)(F)F)c5)[C@H]5CC[C@@H]4/C5=C\C4CC4)c3)C2C1` (stereo partly drawn) [Example 438, methyl 3-(3-(((1R,2R,3S,4R,Z)-7-(cyclopropylmethylene)-3-((4-fluoro-3-(trifluoromethyl)phenyl)carbamoyl)bicyclo[2.2.1]heptan-2-yl)carbamoyl)-4-methoxyphenyl)-3a,4,6,6a-tetrahydro-5H-pyrrolo[3,4-d]isoxazole-5-carboxylate] the EC50 was 0.024 µM. `COc1ccc(C2=NOC3CC(C(C)(C)O)CC23)cc1C(=O)N[C@H]1[C@@H](C(=O)Nc2ccc(F)c(C(F)(F)F)c2)[C@H]2CC[C@@H]1/C2=C\C1CC1` (single isomer, unassigned) [compound 579] gave an EC50 of 0.0716 µM. `CCC=C1C2CCC1[C@H](C(=O)Nc1ccc(F)c(C(F)(F)F)c1)[C@@H]2NC(=O)c1cc(F)c(F)cc1OC` (stereo partly drawn) [compound 47] showed an EC50 of 0.047 µM. `COc1ccc(-c2cnc3nn(CC(=O)O)cc3c2)cc1C(=O)N[C@@H]1C2CCC(/C2=C/C(F)(F)F)[C@@H]1C(=O)Nc1ccc(F)c(C(F)(F)F)c1` (stereo partly drawn) [compound 318] showed an EC50 of 0.011 µM. `COc1ccc(C2=NOC3CC(CO)CC23)cc1C(=O)N[C@H]1[C@@H](C(=O)NC2CCCC2)[C@H]2CC[C@@H]1/C2=C\C1CC1` (stereo partly drawn) [compound 493] gave an EC50 of 0.0095 µM. Molecule `COc1ccc(C2CCCN2)cc1C(=O)N[C@@H]1C2CCC(C2=CC2CC2)[C@@H]1C(=O)Nc1ccc(F)c(C(F)(F)F)c1` (stereo partly drawn) [compound 703] has an EC50 of 1.19 µM. For `COCCOC1(C2CC(c3ccc(OC)c(C(=O)N[C@H]4[C@@H](C(=O)Nc5ccc(F)c(C(F)(F)F)c5)[C@H]5CC[C@@H]4/C5=C\C4CC4)c3)=NO2)CC1` (single isomer, unassigned) [compound 558], the EC50 was 0.0443 µM. Work on `COc1ccc(C2=NOC3CC(CO)CC23)cc1C(=O)N[C@H]1[C@@H](C(=O)N[C@H](C)C2(C)CC2)[C@H]2CC[C@@H]1/C2=C\c1csc(C(F)F)n1` (stereo partly drawn) [compound 741] yielded an EC50 of 0.0017 µM. With `COc1ccc(-c2cc(C3=NOC4CC(CO)CC34)ccc2F)cc1C(=O)N[C@H]1[C@@H](C(=O)Nc2ccc(F)c(C(F)(F)F)c2)[C@H]2CC[C@@H]1/C2=C\C1CC1` (stereo partly drawn) [compound 953] the EC50 was 0.007 µM. With `CCOC(=O)c1cc2cc(-c3ccc(OC)c(C(=O)N[C@@H]4C5CCC(/C5=C/C(F)(F)F)[C@@H]4C(=O)Nc4ccc(F)c(C(F)(F)F)c4)c3)ccc2[nH]1` (stereo partly drawn) [compound 297] the EC50 was 0.073 µM. For `COc1ccc(C2=NOC3(CCOCC3)C2)cc1C(=O)N[C@@H]1C2CCC(/C2=C/C2CC2)[C@@H]1C(=O)Nc1ccc(F)c(C(F)(F)F)c1` (stereo partly drawn) [compound 402], the EC50 was 0.07 µM. `COc1ccc(-c2cnn3c2COCC3)cc1C(=O)N[C@H]1[C@@H](C(=O)N[C@H](C)C2(C)CC2)[C@H]2CC[C@@H]1/C2=C\C1CC1` [compound 745] was tested, and the EC50 was 0.0012 µM. `COc1ccc(-c2cc(C(O)C(=O)O)ccc2F)cc1C(=O)NC1C2CCC(/C2=C/C2CCCC2)C1C(=O)Nc1ccc(F)c(C(F)(F)F)c1` (stereo not drawn) [compound 355] was tested, and the EC50 was 0.003 µM. In the case of `COc1ccc(C#N)cc1C(=O)N[C@H]1[C@@H](C(=O)Nc2ccc(F)c(C(F)(F)F)c2)[C@H]2CC[C@@H]1C2=C(C)C` [compound 99], the EC50 is reported as 0.54 µM.

Source: patent publication US20250221966A1, “RXFP1 AGONISTS” (BRISTOL-MYERS SQUIBB COMPANY, priority 2021, published 2025)
